Source: US20240366539A1, “METHODS FOR TREATING AUTISM SPECTRUM DISORDERS” (INSTITUT NATIONAL DE LA SANTÉ ET DE LA RECHERCHE MÉDICALE, priority 2021, published 2024)
Entries after “also recorded” stand apart in the source; their conditions may differ.

Key:
[1] = tested on: gene expression in Oprm1 null mice (NAc, CPu, VP/Tu, MeA, VTA/SNc); assay: Real-time quantitative PCR of brain reward/social circuit regions; type: in vivo, mouse
Description: Brains were removed and placed into a brain matrix (ASI Instruments, Warren, MI, USA). Nucleus accumbens (NAc), caudate putamen (CPu), ventral pallidum/olfactory tubercle (VP/Tu), medial nucleus of the amygdala (MeA) and ventral tegmental area/substancia nigra pars compacta (VTA/SNc) were punched out/dissected from 1 mm-thick slices (data not shown). Tissues were immediately frozen on dry ice and kept at −80° C. until use. For each structure of interest, genotype and condition, samples were processed individually (n=8). RNA was extracted and purified using the Direct-Zol RNA MiniPrep kit (Zymo research, Irvine, USA). cDNA was synthetized using the ProtoScript II Reverse Transcriptase kit (New England BioLabs, Évry-Courcouronnes, France). qRT-PCR was performed in quadruplets on a CFX384 Touch Real-Time PCR Detection System (Biorad, Marnes-la-Coquette, France) using iQ-SYBR Green supermix (Bio-Rad) kit with 0.25 μl cDNA in a 12 μl final volume in Hard-Shell Thin-Wall 384-Well Skirted PCR Plates (Bio-rad). Gene-specific primers were designed using Primer3 software to obtain a 100- to 150-bp product. Relative expression ratios were normalized to the level of actin and the 2^−ΔΔCt method was applied to evaluate differential expression level. Gene expression values differing of the mean by more than two standard deviations were considered as outliers and excluded from further calculations.
To shed light on the molecular mechanism involved in beneficial effects of chronic sodium bromide administration, we assessed the effects of a 2-week NaBr treatment on gene expression in Oprm1 null mice across five regions of the brain reward/social circuit: NAc, CPu, VP/Tu, MeA and VTA/SNc. Mice underwent a first session of social interaction after one week under treatment and a second 45 min before sacrifice for qRT-PCR experiment (data not shown). We focused primarily on genes coding for chloride transporters (Slc12a2 [NKCC1], Slc12a4, 5, 6, 7 [KCC1,2,3,4, respectively], ClCa1), GABAA receptor subunits (Gabra1, 2, 3, 4, 5, Gabrb1, 2) and glutamate receptors (Grm2, 4, 5) and subunits (Grin2a, 2b). In addition, we evaluated the expression of marker genes of neuronal expression and plasticity (Fos, Bdnf), social behavior (Oxt) and striatal projection neurons (SPNs; Crh, Drd1a, Drd2, Htr6, Pdyn, Penk).

Oprm1^−/− mice = assay: Motor stereotypies; type: in vivo, mouse
Description: (§1) Mice were treated with vehicle (NaCl 0.9%; ip, 10 or 20 ml/kg), NaBr (Sigma-Aldrich, Saint-Quentin Fallavier, France) administered either chronically (once a day, 10, 30, 70, 125, 250 and 500 mg/kg; i.p. or per os, in a volume of 20 ml/kg—except for combination with VU0155041: […]) or acutely (250 mg/kg, 20 ml/kg), KBr (Sigma-Aldrich, Saint-Quentin Fallavier, France; 145 mg/kg; i.p., 20 ml/kg), bumetanide (R&D systems, Minneapolis, USA, 0.5 and 2 mg/kg; i.p., 20 ml/kg) or VU0155041 (Cayman Chemicals, Ann Arbor, USA, once a day, i.p., 1 mg/kg, 10 ml/kg). […] When treatment was given chronically, behavioral testing started 8 days after beginning of daily administration. Treatment was maintained for 8 to 18 consecutive days (see timelines in FIGS. 1 and 4), allowing thorough behavioral phenotyping. On testing days, or when treatment was given acutely, drugs (or vehicle) were administered 30 min before behavioral assays.
Motor stereotypies. To detect motor stereotypies in mutant versus wild-type animals, mice were individually placed in clear standard home cages (21×11×17 cm) filled with 3-cm deep fresh sawdust for 10 min (64). Light intensity was set at 30 lux. Trained experimenters scored numbers of head shakes, as well as rearing, burying, grooming, circling episodes and total time spent burying by direct observation.

Fmr1^−/− mice = assay: Three-chamber social preference test; type: in vivo, mouse; settings: chronic NaBr 250 mg/kg once daily
Description: as §1
(§2) Three-chamber social preference test. The test apparatus consisted of a transparent acrylic box (exterior walls blinded with black plastic film); partitions divided the box into three equal chambers (40×20×22.5 cm). Two sliding doors (8×5 cm) allowed transitions between chambers. Cylindrical wire cages (18×9 cm, 0.5 cm diameter-rods spaced 1 cm apart) were used to contain the mouse interactor and object (soft-toy mouse). The test was performed in low-light conditions (15 lx) to minor anxiety. Stimulus wild-type mice were habituated to confinement in wire cages for 2 days before the test (20 min/day). On testing day, the experimental animal was introduced to the middle chamber and allowed to explore the whole apparatus for a 10-min habituation phase (wire cages empty) after the sliding doors were raised. The experimental mouse was then confined back in the middle-chamber while the experimenter introduced an unfamiliar wild type age and sex-matched animal into a wire cage in one of the side-chambers and a soft toy mouse (8×10 cm) in the second wire cage as a control for novelty. Then the experimental mouse was allowed to explore the apparatus for a 10-min interaction phase. The time spent in each chamber, the time spent in nose contact with each wire cage (empty: habituation; containing a mouse or a toy: interaction), as well as the number of these nose contacts were scored a posteriori on video recordings using an ethological keyboard (Labwatcher®, View Point, Lyon, France) by trained experimenters. […] The relative position of stimulus mice (versus toy) was counterbalanced between groups.
(§3) To this purpose, we evaluated the effects of chronic NaBr administration at the dose of 250 mg/kg on autism-sensitive behaviors in these lines (FIG. 3A).

Shank3^Δex13-16−/− mice = assay: Three-chamber social preference test; type: in vivo, mouse; settings: Shank3Δex13-16−/− mice; chronic NaBr 250 mg/kg once daily
Description: as §1, §2, §3

rat mGlu4 receptor = biological target: T1, rat mGlu4 receptor (Rattus norvegicus, UniProt P31423); assay: IP1 accumulation assay, mGlu4 signaling under glutamate stimulation; type: cell-based
T1 construct: expressed in transfected cells
Description: Human embryonic kidney (HEK) 293 cells were transiently transfected with rat mGlu4 receptor by electroporation together with a chimeric Gi/Gq protein to allow phospholipase activation and EAAC1, a glutamate transporter, to avoid influence of extracellular glutamate. […] 96-well plate (Greiner Bio-One) at the density of 100,000 cells per well and for IPOne assay in a PLO-coated black 96-well plate (Greiner Bio-One) at the density of 50,000 cells per well. Cells were cultured in DMEM (Gibco™, Life Technologies), supplemented with 10% fetal bovine serum. Medium was changed by GlutaMAX (Gibco™, Life Technologies) to reduce extracellular glutamate concentration 3 h before experiment. […]
IP1 accumulation assay: Inositol monophosphate accumulation was determined using the IP-One HTRF (Homogenous Time Resolved Fluorescence) kit (Cisbio Bioassays, Perkin Elmer, Codolet, France) according to the manufacturer's recommendations (72). […]
Data were analyzed using Prism 6 software (GraphPad Software, San Diego, CA, USA). […] Statistical differences between pEC50, ΔpEC50 and Emax were determined using a one-way analysis of variance followed by Tukey's post-test.
We measured mGlu4 signaling under glutamate stimulation in HEK293T cells transiently expressing mGlu4 receptors and Gαqi9, a Gi/Gq chimeric G-protein (57) that allows mGlu4 to activate the phosphoinositide pathway.

[2] = Oprm1+/+ mice, chronic NaBr 10-500 mg/kg
[3] = Oprm1−/− mice, chronic NaBr 10-500 mg/kg or bumetanide 0.5 and 2 mg/kg

T1 sequence (P31423 33-912): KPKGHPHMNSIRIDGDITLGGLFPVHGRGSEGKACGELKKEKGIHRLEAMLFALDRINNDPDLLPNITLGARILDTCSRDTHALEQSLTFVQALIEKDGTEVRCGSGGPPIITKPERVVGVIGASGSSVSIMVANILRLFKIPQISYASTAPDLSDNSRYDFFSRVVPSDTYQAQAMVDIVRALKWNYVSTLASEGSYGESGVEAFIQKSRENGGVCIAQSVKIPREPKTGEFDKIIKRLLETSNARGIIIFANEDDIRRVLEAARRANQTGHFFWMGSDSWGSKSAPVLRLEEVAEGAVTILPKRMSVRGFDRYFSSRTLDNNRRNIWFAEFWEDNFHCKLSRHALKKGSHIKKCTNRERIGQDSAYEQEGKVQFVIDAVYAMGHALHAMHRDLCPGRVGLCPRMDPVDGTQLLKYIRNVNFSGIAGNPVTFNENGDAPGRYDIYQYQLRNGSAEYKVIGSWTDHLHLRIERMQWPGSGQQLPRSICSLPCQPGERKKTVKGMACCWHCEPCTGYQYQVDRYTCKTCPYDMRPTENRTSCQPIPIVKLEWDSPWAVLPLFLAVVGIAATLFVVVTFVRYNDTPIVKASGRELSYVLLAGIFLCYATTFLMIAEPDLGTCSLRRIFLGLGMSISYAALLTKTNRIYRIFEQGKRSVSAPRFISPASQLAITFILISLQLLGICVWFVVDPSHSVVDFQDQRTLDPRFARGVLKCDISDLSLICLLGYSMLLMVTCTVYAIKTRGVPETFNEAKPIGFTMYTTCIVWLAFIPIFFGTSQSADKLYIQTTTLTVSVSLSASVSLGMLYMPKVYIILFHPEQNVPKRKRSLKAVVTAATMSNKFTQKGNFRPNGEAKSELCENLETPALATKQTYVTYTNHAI

[Br-].[Na+] [NaBr, sodium bromide]
ClCa1 transcription ([1]; CPu, mice of both genotypes, 2-week NaBr): increased ClCa1 transcription in mice of both genotypes
Oxt expression ([1]; MeA and VTA/SNc, 2-week NaBr): induced Oxt expression in the MeA and VTA/SNc
expression of chloride transporter genes ([1]; Oprm1−/− mice, 2-week NaBr treatment, qRT-PCR): increased the expression of all tested chloride transporters in Oprm1^−/− mice
expression of Gabra3, Gabra4, Gabra5, Gabrg1 and Gabrb2 ([1]; Oprm1−/− mice, CPu, 2-week NaBr): consistently upregulated the expression of Gabra3, Gabra4, Gabra5, Gabrg1 and Gabrb2 in the CPu of mutant mice
Oxt mRNA levels ([1]; Oprm1−/− mice, NAc (former) and VP/Tu (latter), 2-week NaBr): normalized by NaBr in the former and partially in the latter
Gabra2 expression ([1]; Oprm1−/− mice, NAc and CPu (left high in VP/Tu and MeA), 2-week NaBr): stimulated the expression of Gabra2
Slc12a5 expression ([1]; Oprm1−/− mice, NAc, CPu and MeA, 2-week NaBr): up-regulated the expression of Slc12a5 and Slc12a7
Slc12a7 expression ([1]; Oprm1−/− mice, NAc, CPu, MeA and VP/Tu, 2-week NaBr): up-regulated the expression of Slc12a5 and Slc12a7
Fos expression ([1]; Oprm1−/− mice, NAc, VP/Tu, CPu, 2-week NaBr): down-regulated the expression of the early gene Fos in the NAc and VP/Tu and maintained it low in the CPu
ClCa1 mRNA levels ([1]; Oprm1−/− mice, NAc, VP/Tu, MeA, VTA/SNc, 2-week NaBr): normalized by NaBr treatment in the NAc, increased in the VP/Tu and maintained high in the MeA and VTA/SNc
Slc12a2 expression ([1]; Oprm1−/− mice, decreased in all brain regions but the VP/Tu before treatment, 2-week NaBr): normalized under bromide treatment
Grm4 expression ([1]; all brain regions but the VTA/SNc of Oprm1−/− mice, and NAc of wild-type controls, 2-week NaBr): upregulated the expression of Grm4
number of grooming episodes in wild-type controls (Oprm1^−/− mice; [2]): dose-dependently increased the number of grooming episodes; also recorded: at 500 mg/kg increased the frequency of grooming episodes and head shakes
number of head shakes in wild-type controls (Oprm1^−/− mice; [2]): dose-dependently increased; also recorded: at 500 mg/kg increased the frequency of grooming episodes and head shakes
number of head shakes (Oprm1^−/− mice; [3]): decreased under NaBr treatment since the lowest dose; also recorded: less consistently reduced the number of head shakes (doses over 125 mg/kg)
stereotypic circling episodes (Oprm1^−/− mice; [3]): decreased under NaBr treatment since the lowest dose
number of rearing episodes (Oprm1^−/− mice; both mouse lines (Oprm1−/− and Oprm1+/+), chronic NaBr or bumetanide): increased the number of rearing episodes in a dose-dependent manner
duration of nose contacts with the mouse versus the object (Fmr1^−/− mice): making longer nose contacts with the mouse versus the object
number of nose contacts with either stimulus (Fmr1^−/− mice): without modifying the number of nose contacts
preference ratio (Fmr1^−/− mice): normalized their preference ratio
time exploring the mouse versus the object (Fmr1^−/− mice): restored a preference for spending more time exploring the mouse
duration of nose contacts with the mouse versus the toy (Shank3^Δex13-16−/− mice): made longer nose contacts with their congener versus the toy
number of nose contacts (Shank3^Δex13-16−/− mice): no change in the number of nose contacts
preference ratio (Shank3^Δex13-16−/− mice): increased preference ratio
time in contact with the mouse versus the toy (Shank3^Δex13-16−/− mice): spent more time in contact with the mouse
increase in glutamate efficacy (Emax, maximal IP1 production) (rat mGlu4 receptor; HEK293 cells, mGlu4 + Gαqi9, bromide): 60±10%
ΔpEC50 of glutamate between physiological Cl− concentration and after addition of Br− (rat mGlu4 receptor; addition of Br− (so in the source)): 0.42±0.03
